Test results: ChEMBL document CHEMBL5678818, “Discovery of potent SOS1 inhibitors that block RAS activation via disruption of the RAS-SOS1 interaction” (Proc Natl Acad Sci U S A, 2019)

Legend:
[1] = molecular target: T1, Serine/threonine-protein kinase BRSK1 (Homo sapiens) (UniProt Q8TDC3); assay: Inhibition of BRSK1 (unknown origin) assessed as residual activity at 100 nM by KINOMEscan analysis relative to control
T1 sequence (whole entry): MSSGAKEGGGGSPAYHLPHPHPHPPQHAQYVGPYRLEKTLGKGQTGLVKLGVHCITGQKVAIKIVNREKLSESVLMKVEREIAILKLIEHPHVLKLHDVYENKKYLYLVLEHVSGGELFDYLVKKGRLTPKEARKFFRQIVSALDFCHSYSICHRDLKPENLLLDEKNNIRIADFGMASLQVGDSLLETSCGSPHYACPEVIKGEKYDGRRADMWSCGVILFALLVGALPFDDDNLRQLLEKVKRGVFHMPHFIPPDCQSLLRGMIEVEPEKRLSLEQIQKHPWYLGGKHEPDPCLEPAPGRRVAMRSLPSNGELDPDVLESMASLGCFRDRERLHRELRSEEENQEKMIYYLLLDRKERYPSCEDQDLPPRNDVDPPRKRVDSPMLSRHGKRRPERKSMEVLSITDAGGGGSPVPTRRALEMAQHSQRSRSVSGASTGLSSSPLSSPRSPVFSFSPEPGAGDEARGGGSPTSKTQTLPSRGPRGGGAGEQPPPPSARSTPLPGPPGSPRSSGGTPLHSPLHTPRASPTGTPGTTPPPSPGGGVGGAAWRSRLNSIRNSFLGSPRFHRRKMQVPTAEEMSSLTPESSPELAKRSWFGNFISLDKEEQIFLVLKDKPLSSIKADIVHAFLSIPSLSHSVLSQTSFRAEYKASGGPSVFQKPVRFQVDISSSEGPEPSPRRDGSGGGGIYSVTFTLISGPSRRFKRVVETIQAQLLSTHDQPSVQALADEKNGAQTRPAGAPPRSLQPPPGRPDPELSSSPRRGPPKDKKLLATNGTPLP

[2] = molecular target: Maternal embryonic leucine zipper kinase (Homo sapiens) (UniProt Q14680); assay: Inhibition of MELK (unknown origin) assessed as residual activity at 100 nM by KINOMEscan analysis relative to control
[3] = molecular target: T2, Tyrosine-protein kinase ZAP-70 (Homo sapiens) (UniProt P43403); assay: Inhibition of ZAP70 (unknown origin) assessed as residual activity at 100 nM by KINOMEscan analysis relative to control
T2 sequence (whole entry): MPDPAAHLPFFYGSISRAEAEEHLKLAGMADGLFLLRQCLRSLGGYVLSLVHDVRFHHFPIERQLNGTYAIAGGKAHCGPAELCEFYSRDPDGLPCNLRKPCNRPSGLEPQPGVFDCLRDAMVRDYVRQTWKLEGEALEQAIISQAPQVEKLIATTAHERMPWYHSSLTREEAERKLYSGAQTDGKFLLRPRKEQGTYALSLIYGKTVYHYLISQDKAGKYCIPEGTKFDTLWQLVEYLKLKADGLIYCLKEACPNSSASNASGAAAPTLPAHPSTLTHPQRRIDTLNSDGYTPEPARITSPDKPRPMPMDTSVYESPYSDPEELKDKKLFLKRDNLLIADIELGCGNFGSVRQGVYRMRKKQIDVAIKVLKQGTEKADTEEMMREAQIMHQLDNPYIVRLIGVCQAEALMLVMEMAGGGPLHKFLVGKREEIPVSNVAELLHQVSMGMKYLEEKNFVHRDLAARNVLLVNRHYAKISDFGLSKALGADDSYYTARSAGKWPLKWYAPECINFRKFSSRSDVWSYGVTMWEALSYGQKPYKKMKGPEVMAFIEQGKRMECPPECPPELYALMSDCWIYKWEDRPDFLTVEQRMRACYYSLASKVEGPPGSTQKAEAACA

[4] = molecular target: Serine/threonine-protein kinase pim-3 (Homo sapiens) (UniProt Q86V86); assay: Inhibition of PIM3 (unknown origin) assessed as residual activity at 100 nM by KINOMEscan analysis relative to control
[5] = test system: Hepatocyte growth factor receptor (Homo sapiens), P08581 [M1250T]; assay: Inhibition of MET M1250T mutant (unknown origin) assessed as residual activity at 100 nM by KINOMEscan analysis relative to control
[6] = molecular target: T3, Atypical kinase COQ8B, mitochondrial (Homo sapiens) (UniProt Q96D53); assay: Inhibition of ADCK4 (unknown origin) assessed as residual activity at 100 nM by KINOMEscan analysis relative to control
T3 sequence (whole entry): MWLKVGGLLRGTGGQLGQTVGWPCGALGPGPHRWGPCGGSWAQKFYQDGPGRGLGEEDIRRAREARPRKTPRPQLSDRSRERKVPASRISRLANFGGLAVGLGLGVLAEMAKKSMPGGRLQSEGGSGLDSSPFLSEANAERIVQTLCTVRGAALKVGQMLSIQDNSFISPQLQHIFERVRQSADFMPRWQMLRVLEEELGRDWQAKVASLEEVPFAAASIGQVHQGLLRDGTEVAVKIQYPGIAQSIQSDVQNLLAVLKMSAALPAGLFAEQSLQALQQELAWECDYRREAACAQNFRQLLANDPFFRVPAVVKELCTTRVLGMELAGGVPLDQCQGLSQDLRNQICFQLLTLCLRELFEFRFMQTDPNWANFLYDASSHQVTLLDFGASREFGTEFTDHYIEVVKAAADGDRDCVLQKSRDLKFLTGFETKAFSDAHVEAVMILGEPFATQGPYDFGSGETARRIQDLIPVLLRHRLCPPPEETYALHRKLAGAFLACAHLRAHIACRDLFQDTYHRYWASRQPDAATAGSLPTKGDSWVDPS

[7] = test system: Mast/stem cell growth factor receptor Kit (Homo sapiens), P10721 [A829P]; assay: Inhibition of KIT A829P mutant (unknown origin) assessed as residual activity at 100 nM by KINOMEscan analysis relative to control
Mast/stem cell growth factor receptor Kit (Homo sapiens), P10721 [A829P], sequence (P10721 whole entry A829P): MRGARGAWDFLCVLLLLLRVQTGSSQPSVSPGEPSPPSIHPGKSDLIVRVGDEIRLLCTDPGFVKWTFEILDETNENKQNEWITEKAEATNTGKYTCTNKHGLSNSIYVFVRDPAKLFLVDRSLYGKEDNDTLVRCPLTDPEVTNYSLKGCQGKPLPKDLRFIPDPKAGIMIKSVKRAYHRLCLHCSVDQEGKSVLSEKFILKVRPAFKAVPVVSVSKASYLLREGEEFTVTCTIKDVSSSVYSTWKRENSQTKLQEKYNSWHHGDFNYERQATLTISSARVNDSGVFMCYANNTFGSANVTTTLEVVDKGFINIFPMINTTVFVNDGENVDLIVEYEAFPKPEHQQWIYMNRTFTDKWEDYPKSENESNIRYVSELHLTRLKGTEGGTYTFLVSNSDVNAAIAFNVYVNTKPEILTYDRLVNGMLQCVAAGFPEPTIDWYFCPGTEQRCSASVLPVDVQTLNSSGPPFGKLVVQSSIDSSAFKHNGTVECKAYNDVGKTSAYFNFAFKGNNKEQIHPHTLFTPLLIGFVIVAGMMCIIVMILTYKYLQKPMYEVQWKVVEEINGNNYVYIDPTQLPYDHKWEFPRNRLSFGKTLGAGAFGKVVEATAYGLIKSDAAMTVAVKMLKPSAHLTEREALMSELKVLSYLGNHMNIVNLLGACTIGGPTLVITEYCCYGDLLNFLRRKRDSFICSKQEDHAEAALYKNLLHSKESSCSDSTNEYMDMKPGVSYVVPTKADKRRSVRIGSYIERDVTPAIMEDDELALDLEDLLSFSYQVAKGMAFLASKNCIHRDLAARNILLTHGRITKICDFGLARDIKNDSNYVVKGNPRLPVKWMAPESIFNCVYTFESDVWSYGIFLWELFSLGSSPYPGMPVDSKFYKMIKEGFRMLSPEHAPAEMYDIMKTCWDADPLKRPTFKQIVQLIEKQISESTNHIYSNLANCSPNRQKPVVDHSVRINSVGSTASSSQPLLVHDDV

Maternal embryonic leucine zipper kinase (Homo sapiens), sequence (Q14680 whole entry, looked up): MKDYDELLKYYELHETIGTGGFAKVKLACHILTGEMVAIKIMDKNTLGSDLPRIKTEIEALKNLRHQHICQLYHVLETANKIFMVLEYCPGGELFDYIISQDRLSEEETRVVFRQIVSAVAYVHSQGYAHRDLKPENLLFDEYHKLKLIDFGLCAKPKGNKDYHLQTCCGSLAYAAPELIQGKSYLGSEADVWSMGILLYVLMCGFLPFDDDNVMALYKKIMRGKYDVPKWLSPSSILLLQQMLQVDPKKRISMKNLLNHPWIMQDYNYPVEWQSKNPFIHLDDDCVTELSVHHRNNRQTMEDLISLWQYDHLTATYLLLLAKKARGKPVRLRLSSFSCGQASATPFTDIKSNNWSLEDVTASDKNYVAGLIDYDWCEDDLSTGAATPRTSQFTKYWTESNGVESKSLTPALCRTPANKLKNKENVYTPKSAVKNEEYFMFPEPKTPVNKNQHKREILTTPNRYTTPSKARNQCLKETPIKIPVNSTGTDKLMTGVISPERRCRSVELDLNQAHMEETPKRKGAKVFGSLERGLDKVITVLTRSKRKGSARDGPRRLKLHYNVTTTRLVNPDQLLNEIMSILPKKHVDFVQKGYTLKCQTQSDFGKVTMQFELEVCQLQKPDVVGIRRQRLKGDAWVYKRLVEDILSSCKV

COc1cc2ncnc(N[C@H](C)c3cccc4ccccc34)c2cc1OC
Activity [1]: 100%
Activity [2]: 73%
Activity [3]: 77%
Activity [4]: 87%
Activity [5]: 95%
Activity [6]: 61%
Activity [7]: 96%
